pIC50: −log10 of the molar value. Counter-ions that a name gives are not always drawn.

The record followed here is US11548868B2, “Heterocyclic compounds, compositions comprising heterocyclic compound, and methods of use thereof” (JS INNOPHARM (SHANGHAI) LTD, priority 2017, dated 2023).

T1 sequence (P48775 whole entry): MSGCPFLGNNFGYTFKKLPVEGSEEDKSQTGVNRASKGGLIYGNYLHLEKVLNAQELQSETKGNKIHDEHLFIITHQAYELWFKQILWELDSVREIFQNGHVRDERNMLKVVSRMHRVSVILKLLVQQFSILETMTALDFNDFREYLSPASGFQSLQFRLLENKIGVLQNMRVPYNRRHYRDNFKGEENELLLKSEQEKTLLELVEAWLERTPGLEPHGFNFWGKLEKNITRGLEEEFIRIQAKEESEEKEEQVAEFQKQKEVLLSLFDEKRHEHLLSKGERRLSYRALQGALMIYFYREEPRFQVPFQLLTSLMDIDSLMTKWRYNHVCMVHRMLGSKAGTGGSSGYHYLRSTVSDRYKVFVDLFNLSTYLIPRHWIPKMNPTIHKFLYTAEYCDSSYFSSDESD

The test has as its target T1, TDO2 in A172 cancer cells (Homo sapiens, UniProt P48775).
T1 construct: endogenous in cells; host or cells: A172 cancer cells
Description: TDO2 Cellular Assay (kynurenine production in A172 cancer cells). Format: cell-based. The following applies: L-Trp 1 mM, 24 hours incubation, kynurenine at 490 nm. As for the experimental part:
A172 cancer cells (3×10^4 per well) in 85 μL DMEM medium containing 10% FBS were seeded in a 96-well plate and incubated at 95% humidity and 5% CO2 at 37° C. for overnight. On the next day, L-Trp solution (10 μL, 1 mM final concentration) and serial dilutions of the test compounds and DMEM medium resulting in a total final volume of 100 μL each well. The test compounds were dissolved in DMSO and successively diluted with pH7.5 butter (with final DMSO concentration of 0.25%) resulting in final concentrations of the test compounds ranging from 0 to 25 μM (0, 2.5, 7.5, 25, 75, 250, 750, 2500, 7500, & 25000 nM). After 24 hours of incubation, 70 uL of the supernatant per well was transferred to a new 96 well plate. 8 μL of trichloroacetic acid (6.1 N) was mixed into each well and incubated at 50° C. for 30 min to hydrolyze N-formylkynurenine to kynurenine. The reaction mixture was then centrifuged for 10 min at 2500 RPM to remove sediments. 50 μL of the supernatant per well was transferred to another 96 well plate and mixed with 50 μL of 2% (w/v) p-dimethylaminobenzaldehyde in acetic acid. The yellow color derived from kynurenine was measured at 490 nm using a microplate reader. Percent inhibition of the test compounds was determined by measuring the decrease in kynurenine as compared to the control of DMSO vehicle, which was calculated by formula of (WC−WT)/WC, where WC is the mean absorbance of the control well minus blank well; WT is the mean absorbance of the test well minus the blank well. Data was analyzed by GraphPad Prism 5 and the IC50 values were obtained by non-linear regression.
The IC50 values of for Compounds disclosed are listed in Table 2, A′: ≤0.5 μM; B′: >0.5 μM and ≤1 μM; C′: >1.0 μM and ≤5 uM; and D′: >5 μM.
In the case of `O=S(=O)(N[C@H]1[C@@H]2C[C@@](O)(c3cc(Cl)cc4[nH]ncc34)C[C@@H]21)C1CCCC1` [Example 74, N-((1R,3r,5S,6r)-3-(6-chloro-1H-indazol-4-yl)-3-hydroxybicyclo[3.1.0]hexan-6-yl)cyclopentanesulfonamide], the pIC50 is not below 6.30.

The compound `O=C(N[C@H]1[C@@H]2C[C@@](O)(c3cc(Cl)cc4[nH]ncc34)C[C@@H]21)C1CCCO1` (stereo partly drawn) [Example 75, N-((1R,3r,5S,6r)-3-(6-chloro-1H-indazol-4-yl)-3-hydroxybicyclo[3.1.0]hexan-6-yl)tetrahydrofuran-2-carboxamide] gave a negative logarithm of the IC50 (pIC50) not below 6.30. Consider `O=C(N[C@H]1[C@@H]2C[C@@](O)(c3cc(Cl)cc4[nH]ncc34)C[C@@H]21)C1CC1` [Example 76, N-((1R,3r,5S,6r)-3-(6-chloro-1H-indazol-4-yl)-3-hydroxybicyclo[3.1.0]hexan-6-yl)cyclopropanecarboxamide], for which the negative-log IC50 (pIC50) is not below 6.30.

Take `CC(C)S(=O)(=O)N[C@H]1[C@@H]2C[C@@](O)(c3cc(Cl)cc4[nH]ncc34)C[C@@H]21` [Example 77, N-((1R,3r,5S,6r)-3-(6-chloro-1H-indazol-4-yl)-3-hydroxybicyclo[3.1.0]hexan-6-yl)propane-2-sulfonamide]: the negative-log IC50 (pIC50) is not below 6.30. To `O=S(=O)(N[C@H]1[C@@H]2C[C@@](O)(c3cc(Cl)cc4[nH]ncc34)C[C@@H]21)C1CCCCC1` [Example 78, N-((1R,3r,5S,6r)-3-(6-chloro-1H-indazol-4-yl)-3-hydroxybicyclo[3.1.0]hexan-6-yl)cyclohexanesulfonamide] belongs not below 6.30.

In the case of `O=C(N[C@H]1[C@@H]2C[C@@](O)(c3cc(Cl)cc4[nH]ncc34)C[C@@H]21)C1CCCC1` [Example 79, N-((1R,3r,5S,6r)-3-(6-chloro-1H-indazol-4-yl)-3-hydroxybicyclo[3.1.0]hexan-6-yl)cyclopentanecarboxamide], the negative logarithm of the IC50 (pIC50) was not below 6.30. Take `COC(=O)N[C@H]1[C@@H]2C[C@@](O)(c3cc(Cl)cc4[nH]ncc34)C[C@@H]21` [Example 80, methyl ((1R,3r,5S,6r)-3-(6-chloro-1H-indazol-4-yl)-3-hydroxybicyclo[3.1.0]hexan-6-yl)carbamate]: the negative logarithm of the IC50 (pIC50) is not below 6.30. Compound `CCOC(=O)N[C@H]1[C@@H]2C[C@@](O)(c3cc(Cl)cc4[nH]ncc34)C[C@@H]21` [Example 81, ethyl ((1R,3r,5S,6r)-3-(6-chloro-1H-indazol-4-yl)-3-hydroxybicyclo[3.1.0]hexan-6-yl)carbamate] gave a pIC50 not below 6.30. Take `CCC(=O)N[C@H]1[C@@H]2C[C@@](O)(c3cc(Cl)cc4[nH]ncc34)C[C@@H]21` [Example 82, N-((1R,3r,5S,6r)-3-(6-chloro-1H-indazol-4-yl)-3-hydroxybicyclo[3.1.0]hexan-6-yl)propionamide]: the negative logarithm of the IC50 (pIC50) is not below 6.30.

Compound `O=C(N[C@H]1[C@@H]2C[C@@](O)(c3cc(Cl)cc4[nH]ncc34)C[C@@H]21)C1CCC1` [Example 84, N-((1R,3r,5S,6r)-3-(6-chloro-1H-indazol-4-yl)-3-hydroxybicyclo[3.1.0]hexan-6-yl)cyclobutanecarboxamide] gave a pIC50 not below 6.30. In the case of `O=C(N[C@H]1[C@@H]2C[C@@](O)(c3cc(Cl)cc4[nH]ncc34)C[C@@H]21)C1CCCCC1` [Example 85, N-((1R,3r,5S,6r)-3-(6-chloro-1H-indazol-4-yl)-3-hydroxybicyclo[3.1.0]hexan-6-yl)cyclohexanecarboxamide] it was not below 6.30.

Take `CC(C)OC(=O)N[C@H]1[C@@H]2C[C@@](O)(c3cc(Cl)cc4[nH]ncc34)C[C@@H]21` [Example 86, isopropyl ((1R,3r,5S,6r)-3-(6-chloro-1H-indazol-4-yl)-3-hydroxybicyclo[3.1.0]hexan-6-yl)carbamate]: the pIC50 is not below 6.30. In turn, `O=C(C1CCOCC1)N1C[C@@H]2C[C@@](O)(c3cc(Cl)cc4[nH]ncc34)C[C@@H]2C1` [Example 88, ((3aR,5r,6aS)-5-(6-chloro-1H-indazol-4-yl)-5-hydroxyhexahydrocyclopenta[c]pyrrol-2(1H)-yl)(tetrahydro-2H-pyran-4-yl)methanone] gave a pIC50 not below 6.30. To `CC(C)(C)C(=O)N[C@H]1[C@@H]2C[C@@](O)(c3cc(Cl)cc4[nH]ncc34)C[C@@H]21` [Example 90, N-((1R,3r,5S,6r)-3-(6-chloro-1H-indazol-4-yl)-3-hydroxybicyclo[3.1.0]hexan-6-yl)pivalamide] belongs not below 6.30; to `O=C(N[C@H]1[C@@H]2C[C@@](O)(c3cc(Cl)cc4[nH]ncc34)C[C@@H]21)C1CCOCC1` [Example 91, N-((1R,3r,5S,6r)-3-(6-chloro-1H-indazol-4-yl)-3-hydroxybicyclo[3.1.0]hexan-6-yl)tetrahydro-2H-pyran-4-carboxamide], not below 6.30; to `CC(C)C(=O)N[C@H]1[C@@H]2C[C@@](O)(c3cc(Cl)cc4[nH]ncc34)C[C@@H]21` [Example 92, N-((1R,3r,5S,6r)-3-(6-chloro-1H-indazol-4-yl)-3-hydroxybicyclo[3.1.0]hexan-6-yl)isobutyramide], not below 6.30.

Turning to `O=S(=O)(N[C@H]1[C@@H]2C[C@@](O)(c3cc(Cl)cc4[nH]ncc34)C[C@@H]21)C1CCOCC1` [Example 94, N-((1R,3r,5S,6r)-3-(6-chloro-1H-indazol-4-yl)-3-hydroxybicyclo[3.1.0]hexan-6-yl)tetrahydro-2H-pyran-4-sulfonamide], the negative-log IC50 (pIC50) was not below 6.30. To `NCC(=O)N[C@H]1[C@@H]2C[C@@](O)(c3cc(Cl)cc4[nH]ncc34)C[C@@H]21` [Example 103, 2-amino-N-((1R,3r,5S,6r)-3-(6-chloro-1H-indazol-4-yl)-3-hydroxybicyclo[3.1.0]hexan-6-yl)acetamide hydrochloride] belongs 5.30 to 6.00.
